Test results reported in the NIST ThermoML archive (doi:10.1021/je060271a).
Values joined by “and” are separate entries in the source; they are usually repeats but may differ in a detail not shown here. Identical values can stand only once. Numbers after ± are expanded uncertainties.

Settings: Liquid, Vibrating tube method

CCCCCC(=O)OCC(COC(=O)CCCCC)(COC(=O)CCCCC)COC(=O)CCCCC [pentaerythritol tetrahexanoate]
Settings | mass density
283.15 K, 30604 kPa | 1021 ± 1.2 kg/m3
283.15 K, 30620 kPa | 1020.9 ± 1.2 kg/m3
283.15 K, 30636 kPa | 1020.9 ± 1.2 kg/m3
283.15 K, 30656 kPa | 1021.1 ± 1.2 kg/m3
283.15 K, 30672 kPa | 1020.9 ± 1.2 kg/m3
283.15 K, 30688 kPa | 1021 ± 1.2 kg/m3
283.15 K, 30708 kPa | 1020.9 ± 1.2 kg/m3
283.15 K, 30724 kPa | 1021 ± 1.2 kg/m3
283.15 K, 30740 kPa | 1021 ± 1.2 kg/m3
283.15 K, 30757 kPa | 1021 ± 1.2 kg/m3
283.15 K, 30777 kPa | 1020.9 ± 1.2 kg/m3
283.15 K, 30793 kPa | 1021.1 ± 1.2 kg/m3
283.15 K, 30809 kPa | 1021 ± 1.2 kg/m3
283.15 K, 30829 kPa | 1021 ± 1.2 kg/m3
283.15 K, 30846 kPa | 1021.1 ± 1.2 kg/m3
283.15 K, 30882 kPa | 1021 ± 1.2 kg/m3
283.15 K, 30934 kPa | 1021.1 ± 1.2 kg/m3
283.15 K, 30951 kPa | 1021.1 ± 1.2 kg/m3
283.15 K, 30967 kPa | 1021.1 ± 1.2 kg/m3
283.15 K, 30987 kPa | 1021 ± 1.2 kg/m3
283.15 K, 31003 kPa | 1021.3 ± 1.2 kg/m3
283.15 K, 31020 kPa | 1021.2 ± 1.2 kg/m3
283.15 K, 31040 kPa | 1021.1 ± 1.2 kg/m3
283.15 K, 31056 kPa | 1021.2 ± 1.2 kg/m3
283.15 K, 31073 kPa | 1021.1 ± 1.2 kg/m3
283.15 K, 31093 kPa | 1021.1 ± 1.2 kg/m3
283.15 K, 31110 kPa | 1021.1 ± 1.2 kg/m3
283.15 K, 31127 kPa | 1021.2 ± 1.2 kg/m3
283.15 K, 31147 kPa | 1021.2 ± 1.2 kg/m3
283.15 K, 31164 kPa | 1021.2 ± 1.2 kg/m3
283.15 K, 31180 kPa | 1021.2 ± 1.2 kg/m3
283.15 K, 31201 kPa | 1021.3 ± 1.2 kg/m3
283.15 K, 31217 kPa | 1021.3 ± 1.2 kg/m3
283.15 K, 31234 kPa | 1021.3 ± 1.2 kg/m3
283.15 K, 31254 kPa | 1021.3 ± 1.2 kg/m3
283.15 K, 31272 kPa | 1021.2 ± 1.2 kg/m3
283.15 K, 31289 kPa | 1021.2 ± 1.2 kg/m3
283.15 K, 31306 kPa | 1021.2 ± 1.2 kg/m3
283.15 K, 31327 kPa | 1021.3 ± 1.2 kg/m3
283.15 K, 31343 kPa | 1021.3 ± 1.2 kg/m3
283.15 K, 31361 kPa | 1021.3 ± 1.2 kg/m3
283.15 K, 31378 kPa | 1021.3 ± 1.2 kg/m3
283.15 K, 31398 kPa | 1021.4 ± 1.2 kg/m3
283.15 K, 31415 kPa | 1021.3 ± 1.2 kg/m3
283.15 K, 31432 kPa | 1021.4 ± 1.2 kg/m3
283.15 K, 31453 kPa | 1021.5 ± 1.2 kg/m3
283.15 K, 31470 kPa | 1021.4 ± 1.2 kg/m3
283.15 K, 31488 kPa | 1021.5 ± 1.2 kg/m3
283.15 K, 31509 kPa | 1021.5 ± 1.2 kg/m3
283.15 K, 31528 kPa | 1021.5 ± 1.2 kg/m3
283.15 K, 31545 kPa | 1021.6 ± 1.2 kg/m3
283.15 K, 31562 kPa | 1021.5 ± 1.2 kg/m3
283.15 K, 31583 kPa | 1021.3 ± 1.2 kg/m3
283.15 K, 31600 kPa | 1021.4 ± 1.2 kg/m3
283.15 K, 31618 kPa | 1021.5 ± 1.2 kg/m3
283.15 K, 31639 kPa | 1021.5 ± 1.2 kg/m3
283.15 K, 31656 kPa | 1021.5 ± 1.2 kg/m3
283.15 K, 31674 kPa | 1021.5 ± 1.2 kg/m3
283.15 K, 31691 kPa | 1021.5 ± 1.2 kg/m3
283.15 K, 31712 kPa | 1021.6 ± 1.2 kg/m3
283.15 K, 31730 kPa | 1021.4 ± 1.2 kg/m3
283.15 K, 31748 kPa | 1021.6 ± 1.2 kg/m3
283.15 K, 31770 kPa | 1021.4 ± 1.2 kg/m3
283.15 K, 31787 kPa | 1021.5 ± 1.2 kg/m3
283.15 K, 31805 kPa | 1021.5 ± 1.2 kg/m3
283.15 K, 31823 kPa | 1021.6 ± 1.2 kg/m3
283.15 K, 31845 kPa | 1021.5 ± 1.2 kg/m3
283.15 K, 31863 kPa | 1021.6 ± 1.2 kg/m3
283.15 K, 31881 kPa | 1021.5 ± 1.2 kg/m3
283.15 K, 31902 kPa | 1021.5 ± 1.2 kg/m3
283.15 K, 31920 kPa | 1021.4 ± 1.2 kg/m3
283.15 K, 31942 kPa | 1021.6 ± 1.2 kg/m3
283.15 K, 31960 kPa | 1021.6 ± 1.2 kg/m3
283.15 K, 31978 kPa | 1021.7 ± 1.2 kg/m3
283.15 K, 31996 kPa | 1021.6 ± 1.2 kg/m3
283.15 K, 32019 kPa | 1021.5 ± 1.2 kg/m3
283.15 K, 32037 kPa | 1021.7 ± 1.2 kg/m3
283.15 K, 32055 kPa | 1021.8 ± 1.2 kg/m3
283.15 K, 32077 kPa | 1021.7 ± 1.2 kg/m3
283.15 K, 32096 kPa | 1021.6 ± 1.2 kg/m3
283.15 K, 32115 kPa | 1021.8 ± 1.2 kg/m3
283.15 K, 32133 kPa | 1021.7 ± 1.2 kg/m3
283.15 K, 32156 kPa | 1021.6 ± 1.2 kg/m3
283.15 K, 32349 kPa | 1021.8 ± 1.2 kg/m3
283.15 K, 32369 kPa | 1021.8 ± 1.2 kg/m3
283.15 K, 32386 kPa | 1021.7 ± 1.2 kg/m3
283.15 K, 32399 kPa | 1021.8 ± 1.2 kg/m3
283.15 K, 32420 kPa | 1021.7 ± 1.2 kg/m3
283.15 K, 32436 kPa | 1021.9 ± 1.2 kg/m3
283.15 K, 32455 kPa | 1022 ± 1.2 kg/m3
283.15 K, 32472 kPa | 1022 ± 1.2 kg/m3
283.15 K, 32488 kPa | 1021.9 ± 1.2 kg/m3
283.15 K, 32506 kPa | 1021.9 ± 1.2 kg/m3
283.15 K, 32526 kPa | 1021.9 ± 1.2 kg/m3
283.15 K, 32543 kPa | 1022 ± 1.2 kg/m3
283.15 K, 32560 kPa | 1021.9 ± 1.2 kg/m3
283.15 K, 32575 kPa | 1022 ± 1.2 kg/m3
283.15 K, 32587 kPa | 1021.9 ± 1.2 kg/m3
283.15 K, 32601 kPa | 1022 ± 1.2 kg/m3
283.15 K, 32613 kPa | 1021.9 ± 1.2 kg/m3
283.15 K, 32626 kPa | 1021.9 ± 1.2 kg/m3
283.15 K, 32639 kPa | 1022 ± 1.2 kg/m3
283.15 K, 32654 kPa | 1022 ± 1.2 kg/m3
283.15 K, 32665 kPa | 1022 ± 1.2 kg/m3
283.15 K, 32672 kPa | 1022 ± 1.2 kg/m3
283.15 K, 32680 kPa | 1022 ± 1.2 kg/m3
283.15 K, 32688 kPa | 1022.1 ± 1.2 kg/m3
283.15 K, 32694 kPa | 1022 ± 1.2 kg/m3
283.15 K, 32703 kPa | 1022 ± 1.2 kg/m3
283.15 K, 32708 kPa | 1022.1 ± 1.2 kg/m3
283.15 K, 32709 kPa | 1022 ± 1.2 kg/m3
283.15 K, 32711 kPa | 1021.8 ± 1.2 kg/m3
283.15 K, 32715 kPa | 1022 ± 1.2 kg/m3
283.15 K, 32718 kPa | 1022 ± 1.2 kg/m3
283.15 K, 32720 kPa | 1022 ± 1.2 kg/m3 and 1022.1 ± 1.2 kg/m3
283.15 K, 32723 kPa | 1021.9 ± 1.2 kg/m3 and 1022 ± 1.2 kg/m3
283.15 K, 32725 kPa | 1021.9 ± 1.2 kg/m3
283.15 K, 32726 kPa | 1022 ± 1.2 kg/m3
283.15 K, 32853 kPa | 1022 ± 1.2 kg/m3
283.15 K, 32977 kPa | 1022.2 ± 1.2 kg/m3
283.15 K, 32981 kPa | 1022.1 ± 1.2 kg/m3
283.15 K, 32985 kPa | 1022.1 ± 1.2 kg/m3
283.15 K, 32990 kPa | 1022.1 ± 1.2 kg/m3
283.15 K, 32992 kPa | 1022.2 ± 1.2 kg/m3
283.15 K, 32997 kPa | 1022.1 ± 1.2 kg/m3
283.15 K, 33001 kPa | 1022.1 ± 1.2 kg/m3
283.15 K, 33005 kPa | 1022.2 ± 1.2 kg/m3
283.16 K, 90.5 kPa | 1004.1 ± 1.2 kg/m3
283.16 K, 90.7 kPa | 1004.2 ± 1.2 kg/m3
283.16 K, 90.8 kPa | 1004.2 ± 1.2 kg/m3
283.16 K, 90.9 kPa | 1004.1 ± 1.2 kg/m3 and 1004.3 ± 1.2 kg/m3
283.16 K, 91.2 kPa | 1004.3 ± 1.2 kg/m3 and 1004.2 ± 1.2 kg/m3
283.16 K, 91.4 kPa | 1004.1 ± 1.2 kg/m3 and 1004.2 ± 1.2 kg/m3 and 1004 ± 1.2 kg/m3
283.16 K, 91.5 kPa | 1004.1 ± 1.2 kg/m3 and 1004.2 ± 1.2 kg/m3
283.16 K, 91.7 kPa | 1004.2 ± 1.2 kg/m3 and 1004.1 ± 1.2 kg/m3
283.16 K, 91.9 kPa | 1004.2 ± 1.2 kg/m3
283.16 K, 92.1 kPa | 1004.3 ± 1.2 kg/m3
283.16 K, 92.2 kPa | 1004.2 ± 1.2 kg/m3 and 1004.1 ± 1.2 kg/m3
283.16 K, 92.4 kPa | 1004.2 ± 1.2 kg/m3
283.16 K, 92.6 kPa | 1004.2 ± 1.2 kg/m3
283.16 K, 92.8 kPa | 1004.1 ± 1.2 kg/m3 and 1004.2 ± 1.2 kg/m3 and 1004 ± 1.2 kg/m3
283.16 K, 93.1 kPa | 1004.2 ± 1.2 kg/m3 and 1004.1 ± 1.2 kg/m3
283.16 K, 93.3 kPa | 1004.1 ± 1.2 kg/m3 and 1004.2 ± 1.2 kg/m3
283.16 K, 93.6 kPa | 1004.2 ± 1.2 kg/m3
283.16 K, 93.8 kPa | 1004.1 ± 1.2 kg/m3 and 1004.2 ± 1.2 kg/m3
